Measured values from publication PMC7725506, “Functional Diversification of SRSF Protein Kinase to Control Ubiquitin-Dependent Neurodevelopmental Signaling” (Developmental Cell, 2020).

Legend:
[1] = tested on: Ser-Arg rich splicing factors (SRSF); test: SRSF phosphorylation in mESCs, immunoblotting with phosphoepitope SR proteins antibody; type: cell-based, mouse; conditions: 10 μM, 4 h
Experimental: SRSF phosphorylation, SRPK1, SRPK2, and ERK1/2 levels were determined by immunoblotting. […] Quantification of SRSF phosphorylation (Right). Data represented as mean ± SEM (n = 4). […] Data represented as mean ± SEM (n = 3). One-way ANOVA followed by Tukey’s multiple comparisons test; confidence level 95%.
All compounds were diluted in DMSO and mESCs treated with 10 μM inhibitor for 4 h prior lysis unless indicated otherwise.
SDS-PAGE electrophoresis and immunoblotting was performed using standard methods. Cells were lysed in lysis buffer (20 mM Tris [pH 7.4], 150 mM NaCl, 1 mM EDTA, 1% NP-40 [v/v], 0.5% sodium deoxycholate [w/v], 10 mM β-glycerophosphate, 10 mM sodium pyrophosphate, 1 mM NaF, 2 mM Na3VO4, and Roche Complete Protease Inhibitor Cocktail Tablets). Phospho-specific antibodies were used at 1 μg/ml with 10 μg/ml of the corresponding non-phosphopeptide. After secondary antibody incubation, membranes were subjected to chemiluminescence detection with Immobilon Western Chemiluminescent HRP Substrate (Millipore) using a Gel-Doc XR+ System (Bio-Rad) or Infrared detection using a LI-COR Odyssey Clx system.

[2] = target: SRPK2 (Homo sapiens, UniProt P78362); test: REX1 fluorescent ubiquitylation assay with recombinant RNF12 incubated with SRPK2; type: biochemical; conditions: pre-incubation with 10 μM
Experimental: Infrared scans of ubiquitylated substrate signal (Top) and quantification (Bottom). Data represented as mean ± SEM (n = 3). […] (^∗) p = 0.0350. Phospho-Ser214 and total RNF12, REX1, and SRPK2 infrared immunoblots are shown. ^∗ = non-specific fluorescent signal. (B) Recombinant RNF12 was incubated with WT or kinase dead (KD) SRPK2 and subjected to REX1 fluorescent ubiquitylation assays. Infrared scans of ubiquitylated substrate signal (Top) and quantification (Bottom). Data represented as mean ± SEM (n = 3). […] (^∗∗∗∗) p < 0.0001. Phospho-Ser214 and total RNF12, REX1, and SRPK2 infrared immunoblots are shown. ^∗ = non-specific fluorescent signal. (C) Recombinant RNF12 was incubated with WT or KD SRPK2 and SMAD7 ubiquitylation assessed. Infrared scans of ubiquitylated substrate signal (Top) and quantification (Bottom). Data represented as mean ± SD (n = 2). Phospho-Ser214 and total RNF12, REX1, and SRPK2 infrared immunoblots are shown. ^∗ = non-specific fluorescent signal. (D) Recombinant RNF12 was incubated with WT (pRNF12) or KD (unpRNF12) SRPK2 and subjected to E2 ubiquitin discharge assay. Infrared immunoblot scans (Top Left), reaction rate determinations (Top Right) and normalized quantification of E2-ubiquitin conjugate signal (Bottom) are shown. […] RNF12, REX1, phospho-Ser214 RNF12 and SRPK1 infrared immunoblots (Top) and RNF12-REX1 binding quantification (bottom) are shown. […]

[3] = target: T1, SRPK2 (Mus musculus, UniProt O54781); test: SRPK2 immunoprecipitation kinase assay from inhibitor-treated mESCs with RNF12 as substrate; type: cell-based; conditions: mESCs pre-treated with 10 μM for 4 h
T1 construct: endogenous in cells; host or cells: mESCs (CCE line)
Experimental: SRSF phosphorylation, SRPK1, SRPK2, and ERK1/2 levels were determined by immunoblotting. Expected positions of SRSFs that are not detected are shown in gray. Quantification of SRSF phosphorylation (Right). Data represented as mean ± SEM (n = 4). […] Neuro 2a is a control for exon 16b exclusion in differentiated cells (Bottom). Data represented as mean ± SEM (n = 3). […] Exon 16 inclusion: (^∗∗∗∗) p < 0.0001, Exon 16b inclusion: (^∗) p = 0.0164, p = 0.0485, and p = 0.0489 (left to right). Ratio exon 16b/16: (^∗∗∗∗) p < 0.0001, (^∗∗∗) p = 0.0003. (C) SRPK substrates predicted using ScanProsite and grouped according to UniProt functions. (D) RNF12 phosphorylation sites detected by mass-spectrometry. LZL, leucine-zipper like; NLS, nuclear localization signal; NES, nuclear export signal; RING, RING E3 ubiquitin ligase catalytic domain. (E) CMGC family kinase copy numbers in mESCs determined by quantitative proteomics and represented using Kinoviewer. (F) CMGC kinase (200 mU) phosphorylation of the RNF12 SR-motif in vitro was determined by immunoblotting for RNF12 phospho-Ser214 and total RNF12. […] Normalized RNF12 Ser214 phosphorylation is shown below. Data represented as mean ± SEM (n = 3). […] RNF12 SR-motif phosphorylation was analyzed by immunoblotting for RNF12 phospho-Ser214 and RNF12. SRPK1 and SRPK2 levels are shown as a loading control, Related to Figure S1; Tables S1 and S2. […]

T1 sequence (O54781 whole entry): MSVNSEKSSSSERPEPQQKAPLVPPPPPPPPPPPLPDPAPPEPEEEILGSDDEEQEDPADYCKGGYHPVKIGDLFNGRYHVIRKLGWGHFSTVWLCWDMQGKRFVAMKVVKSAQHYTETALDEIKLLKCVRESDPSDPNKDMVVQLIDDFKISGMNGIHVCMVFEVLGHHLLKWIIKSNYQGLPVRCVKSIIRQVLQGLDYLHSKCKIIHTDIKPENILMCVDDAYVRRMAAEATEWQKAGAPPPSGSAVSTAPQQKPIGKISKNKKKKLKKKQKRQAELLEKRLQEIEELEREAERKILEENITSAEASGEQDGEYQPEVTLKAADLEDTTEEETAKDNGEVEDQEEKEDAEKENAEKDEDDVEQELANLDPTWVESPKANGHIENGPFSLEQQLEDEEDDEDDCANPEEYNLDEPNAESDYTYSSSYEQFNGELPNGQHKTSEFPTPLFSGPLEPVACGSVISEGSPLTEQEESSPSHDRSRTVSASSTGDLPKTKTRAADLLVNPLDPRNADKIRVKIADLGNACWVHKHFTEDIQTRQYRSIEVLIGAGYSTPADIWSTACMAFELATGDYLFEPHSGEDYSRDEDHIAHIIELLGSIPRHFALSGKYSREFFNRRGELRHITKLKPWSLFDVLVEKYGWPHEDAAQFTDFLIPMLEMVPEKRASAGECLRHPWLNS
Chain of SRPK2 (Homo sapiens, UniProt P78362) (P78362 1-699 isoform P78362-2): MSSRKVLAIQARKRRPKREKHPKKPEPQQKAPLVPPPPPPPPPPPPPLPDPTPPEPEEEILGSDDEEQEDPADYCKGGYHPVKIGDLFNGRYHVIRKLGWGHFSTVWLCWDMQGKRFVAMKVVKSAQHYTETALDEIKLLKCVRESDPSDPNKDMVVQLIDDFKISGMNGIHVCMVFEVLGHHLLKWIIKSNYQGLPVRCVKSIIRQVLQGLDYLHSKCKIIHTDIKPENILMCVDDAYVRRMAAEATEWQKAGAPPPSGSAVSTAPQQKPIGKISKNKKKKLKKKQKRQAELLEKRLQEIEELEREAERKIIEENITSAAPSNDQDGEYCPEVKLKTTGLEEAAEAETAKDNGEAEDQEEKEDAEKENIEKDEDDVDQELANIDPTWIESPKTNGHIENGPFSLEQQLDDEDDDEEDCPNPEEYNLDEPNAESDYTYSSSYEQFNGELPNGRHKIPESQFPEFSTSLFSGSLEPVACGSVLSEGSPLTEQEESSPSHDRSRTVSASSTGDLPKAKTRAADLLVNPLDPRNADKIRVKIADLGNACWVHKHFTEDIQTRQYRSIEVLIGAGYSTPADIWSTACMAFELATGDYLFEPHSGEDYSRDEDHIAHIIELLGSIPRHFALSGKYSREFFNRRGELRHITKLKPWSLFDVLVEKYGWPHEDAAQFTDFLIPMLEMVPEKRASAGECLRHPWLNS

Question: How did the “phosphorylation of SRSF4” value [1] turn out when `CCc1cc2c(cc1-c1cccc(S(=O)(=O)F)c1)C(C)(C)c1[nH]c3cc(C#N)ccc3c1C2=O` [SRPKIN-1] was run?
Answer: only slightly inhibited

Question: And the “phosphorylation of SRSF6/11, SRSF5/7/10” value [1]?
Answer: not significantly altered

Question: What about the “enhancement of REX1 ubiquitylation following RNF12 phosphorylation by SRPK2” value [2] of the same molecule?
Answer: not observed

Question: And the “inhibition of SRPK2 in vivo (ability of immunoprecipitates to phosphorylate RNF12)” value [3]?
Answer: potently inhibited
